The values that follow come from EP1481666A1, “A composition for re-establishment of the vaginal ecosystem” (ROTTAPHARM S.R.L., priority 2003, dated 2004).

For this test, the system named is Lactobacillus acidophilus ATCC 314. Kind of test: Test 1: comparison between nutrient substrates (use of substrate added to MRS broth base by Lactobacillus). The test is classed as cell-based, Lactobacillus acidophilus ATCC 314 (human origin). Conditions: for Lactic acid (%): HPLC; for Lactic acid (%) / D.O. / pH: 37°C, 24 hours; for D.O.: optical density of the culture; for growth and production of lactic acid: concentrations from 0.5 to 2.0%; for pH: starting pH 5.7±0.2. From the text: Since the Lactobacilli control the vaginal pH by means of the production of lactic acid it appeared to be useful to verify, both directly and indirectly, their capacity to utilise the various substrates proposed for the production of lactic acid and consequently their utility in the formulation of the composition.
• Lactobacillus acidophilus ATCC 314 (human origin) • Lactobacillus acidophilus wt (from vaginal swab)
• MRS broth (Lactobacillus broth according to De Man, Rogose) Merck • MRS broth base (without D(+)-glucose) • Series of MRS broth base media to which maltodextrins were added in percentages lying between 0.1 and 5% • Series of MRS broth base media to which glycogen was added in quantities lying between 0.5 and 2% • Series of MRS broth base media to which glucose was added in quantities lying between 0.1 and 2% • Series of MRS broth base media to which lactose was added in quantities lying between 0.5 and 2% Note: the pH of the media was always 5.7±0.2.
After having prepared fresh cultures of Lactobacilli in agar, an inoculation into five ml of MRS broth was incubated at 37°C for 24 hours. Aliquotes were prepared from 60 ml of the previously described media and in each of these were inoculated 600 µl of the culture in agar, with subsequent incubation at 37°C for 24 hours. As negative control aliquotes of 3 ml of the above-described media without inoculation of Lactobacilli were incubated. As positive control Merck MRS broth was utilised.
After 24 hours of incubation the optical density of the cultures was measured, the pH of the media was determined after centrifugation and filtration of the supernatant with a 0.45µ filter. The lactic acid present in the culture was also quantified by the HPLC method utilising as a control a laboratory standard of the same. These evaluation parameters have the following significance: • An increase in optical density confirms the growth of Lactobacilli; • Reduction in pH indicates the formation of lactic acid; • The quantitative determination of the lactic acid measures the efficiency of the use of the nutrient substrate by the Lactobacilli.

The mark [1] stands for this setting: result in words, concentration of 0.1%.
[2] abbreviates: substrate 0.5 % in MRS broth base.
Setting [3] is: substrate 1.0 % in MRS broth base.
The mark [4] stands for this setting: substrate 2.0 % in MRS broth base.

With `OC[C@H]1OC(O)[C@H](O)[C@@H](O)[C@@H]1O` (stereo partly shown) [GLU, Glucose], the “Lactic acid (%)” value by setting is: (substrate 0.1 %) 0.17%; (substrate 0.5 %) 0.90%; (substrate 1.0 %) 1.80%; (substrate 2.0 %) 2.43%. Moreover, the D.O. reads like this: (substrate 0.1 %) 0.665; (substrate 0.5 %) 1.540; (substrate 1.0 %) 2.593; (substrate 2.0 %) 2.540. Under setting [1], the “utilised for the growth of Lactobacillus” value is listed as “significant”. In addition, the “utilised for the production of lactic acid” value under setting [1] was “hardly utilised”. Further, the “growth and production of lactic acid” value (result in words) is “utilised in a useful and dose-dependent manner”. Moreover, the pH by setting is: (substrate 0.1 % in MRS broth base) 5.56; under setting [2], 4.74; under setting [3], 4.33; under setting [4], 4.57.
For `OC[C@H]1O[C@@H](O[C@H]2[C@H](O)[C@@H](O)C(O)O[C@@H]2CO)[C@H](O)[C@@H](O)[C@H]1O` (stereo partly shown) [LA, Lactose], the “Lactic acid (%)” value is on record as less than 0.10% (substrate 0.5 %), less than 0.10% (substrate 1.0 %) and less than 0.10% (substrate 2.0 %). The D.O. runs as follows: (substrate 0.5 %) 0.218; (substrate 1.0 %) 0.221; (substrate 2.0 %) 0.179. Moreover, the “growth and production of lactic acid” value (result in words) is listed as “rather poor”. Further, the pH worked out at 5.88 under setting [2], 5.91 under setting [3] and 5.94 under setting [4].
